Article PMC6478789, “A chemical toolbox for the study of bromodomains and epigenetic signaling” (Nature Communications, 2019)

How the values were obtained:
RPS6KA1 = test: Temperature shift assay (protein kinases); assay type: binding; conditions: 10 μM probe; average of three measurements
Protocol: (§1) Temperature shift assays have been described by Fedorov et al.[46]. Recombinant protein domains (bromodomain or kinases) at a concentration of 2 μM in 10 mM HEPES, pH 7.5, and 500 mM NaCl were mixed with 10 μM of chemical probes. Temperature-dependent protein unfolding profiles were measured using a Real-Time PCR Mx3005p machine (Stratagene).

STK10 = biological target: T1, STK10 (Homo sapiens, UniProt O94804); test: Temperature shift assay (protein kinases); assay type: binding; conditions: 10 μM probe; average of three measurements
T1 construct: Recombinant protein domains (bromodomain or kinases) at a concentration of 2 μM
T1 sequence (O94804 36-294 limits assumed, species assumed): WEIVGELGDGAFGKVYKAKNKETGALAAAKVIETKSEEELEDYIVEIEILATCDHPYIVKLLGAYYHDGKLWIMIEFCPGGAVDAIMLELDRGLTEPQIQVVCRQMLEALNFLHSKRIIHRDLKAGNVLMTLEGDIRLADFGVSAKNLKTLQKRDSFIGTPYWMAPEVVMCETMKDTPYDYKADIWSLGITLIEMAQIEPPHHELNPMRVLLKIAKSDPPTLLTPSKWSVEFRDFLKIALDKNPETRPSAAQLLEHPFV
Protocol: as §1

TTK = biological target: T2, TTK (Homo sapiens, UniProt P33981); test: Temperature shift assay (protein kinases); assay type: binding; conditions: 10 μM probe; average of three measurements
T2 construct: Recombinant protein domains (bromodomain or kinases) at a concentration of 2 μM
T2 sequence (P33981 525-791 limits assumed): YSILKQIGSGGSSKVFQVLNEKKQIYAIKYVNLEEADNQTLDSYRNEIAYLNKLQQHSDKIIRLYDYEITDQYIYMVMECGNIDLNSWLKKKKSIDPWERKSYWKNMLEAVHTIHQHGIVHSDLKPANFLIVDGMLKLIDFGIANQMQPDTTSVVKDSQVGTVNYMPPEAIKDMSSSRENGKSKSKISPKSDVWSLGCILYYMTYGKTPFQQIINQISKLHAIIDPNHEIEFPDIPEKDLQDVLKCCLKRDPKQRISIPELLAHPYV
Protocol: as §1

DYRK1A = biological target: T3, DYRK1A (Homo sapiens, UniProt Q13627); test: Temperature shift assay (protein kinases); assay type: binding; conditions: 10 μM probe; average of three measurements
T3 construct: Recombinant protein domains (bromodomain or kinases) at a concentration of 2 μM
Protocol: as §1

STK3 = biological target: T4, STK3 (Homo sapiens, UniProt Q13188); test: Temperature shift assay (protein kinases); assay type: binding; conditions: 10 μM probe; average of three measurements
T4 construct: Recombinant protein domains (bromodomain or kinases) at a concentration of 2 μM
T4 sequence (Q13188 27-278 limits assumed): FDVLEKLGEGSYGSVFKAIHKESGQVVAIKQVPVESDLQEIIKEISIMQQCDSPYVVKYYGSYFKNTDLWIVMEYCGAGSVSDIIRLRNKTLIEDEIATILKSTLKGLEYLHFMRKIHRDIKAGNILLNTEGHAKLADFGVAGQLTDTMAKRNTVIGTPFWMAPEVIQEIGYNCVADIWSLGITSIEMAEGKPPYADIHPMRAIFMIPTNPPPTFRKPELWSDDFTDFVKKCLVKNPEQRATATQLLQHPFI
Protocol: as §1

PAK4 = biological target: T5, PAK4 (Homo sapiens, UniProt O96013); test: Temperature shift assay (protein kinases); assay type: binding; conditions: 10 μM probe; average of three measurements
T5 construct: Recombinant protein domains (bromodomain or kinases) at a concentration of 2 μM
T5 sequence (O96013 321-572 limits assumed, species assumed): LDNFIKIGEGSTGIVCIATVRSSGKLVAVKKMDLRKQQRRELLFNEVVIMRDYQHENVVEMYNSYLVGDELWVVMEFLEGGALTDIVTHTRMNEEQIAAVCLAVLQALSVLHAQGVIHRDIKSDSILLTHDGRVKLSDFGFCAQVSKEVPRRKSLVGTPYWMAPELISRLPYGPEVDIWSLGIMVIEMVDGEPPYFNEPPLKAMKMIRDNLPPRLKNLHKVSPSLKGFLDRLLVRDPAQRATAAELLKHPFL
Protocol: as §1

BRPF3 = BRPF3 (Homo sapiens, UniProt Q9ULD4); test: Temperature shift assay (non-BRD reader domains); assay type: binding; conditions: 10µM compound
Sequence of BRPF3 (Q9ULD4 1076-1159 limits assumed, species assumed): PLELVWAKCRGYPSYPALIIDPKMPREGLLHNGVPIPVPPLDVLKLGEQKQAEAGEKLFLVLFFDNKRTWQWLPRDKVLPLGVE
Protocol: as §1
(§2) Wu et al., Supplementary figures and tables 14
(§3) Supplementary Table 3: Selectivity screening data (non-BRD reader domains):
(§4) Temperature shift assay data of BRD probes screened against a diver se panel of methyl-lysine
(§5) reader domains. Compounds were screened a concentration of 10 µM. Shown are temperature

RBBP1 = test: Temperature shift assay (non-BRD reader domains); assay type: binding; conditions: 10µM compound
Protocol: as §1, §2, §3, §4, §5

TDRD3 = TDRD3 (Homo sapiens, UniProt Q9H7E2); test: Temperature shift assay (non-BRD reader domains); assay type: binding; conditions: 10µM compound
Sequence of TDRD3 (Q9H7E2 555-615 limits assumed, species assumed): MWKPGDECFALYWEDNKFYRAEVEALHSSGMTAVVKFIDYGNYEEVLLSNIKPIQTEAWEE
Protocol: as §1, §2, §3, §4, §5

FXR1 = FXR1 (Homo sapiens, UniProt P51114); test: Temperature shift assay (non-BRD reader domains); assay type: binding; conditions: 10µM compound
Sequence of FXR1 (P51114 2-132 limits assumed, species assumed): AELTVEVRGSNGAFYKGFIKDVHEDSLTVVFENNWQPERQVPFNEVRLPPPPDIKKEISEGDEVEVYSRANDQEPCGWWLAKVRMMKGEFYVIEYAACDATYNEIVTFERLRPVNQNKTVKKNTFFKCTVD
Protocol: as §1, §2, §3, §4, §5

53BP1 = 53BP1 (Homo sapiens, UniProt Q12888); test: Temperature shift assay (non-BRD reader domains); assay type: binding; conditions: 10µM compound
Sequence of 53BP1 (Q12888 1484-1603 limits assumed, species assumed): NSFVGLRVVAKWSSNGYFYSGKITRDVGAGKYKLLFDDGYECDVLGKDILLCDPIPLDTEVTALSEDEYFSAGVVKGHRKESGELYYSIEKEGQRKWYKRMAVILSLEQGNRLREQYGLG
Protocol: as §1, §2, §3, §4, §5

WDR5 = WDR5 (Homo sapiens, UniProt P61964); test: Temperature shift assay (non-BRD reader domains); assay type: binding; conditions: 10µM compound
Protocol: as §1, §2, §3, §4, §5

BRD4(fl) = BRD4(fl) (Homo sapiens, UniProt O60885); test: BROMOscan ligand-binding assay
Text: (§6) BROMOscan is a binding assay based on the well-known KINOMEscan technology. This assay measures the binding of a DNA-tagged bromodomain to an immobilized BRD ligand. If an inhibitor is present, it will compete with the bromodomain binding to the immobilized ligand, resulting in reduction of a quantitative PCR (qPCR) signal in a dose-dependent manner.

TAF1L(2) = biological target: T6, TAF1L(2) (Homo sapiens, UniProt Q8IZX4); test: BROMOscan ligand-binding assay
T6 sequence (Q8IZX4 1517-1626 limits assumed): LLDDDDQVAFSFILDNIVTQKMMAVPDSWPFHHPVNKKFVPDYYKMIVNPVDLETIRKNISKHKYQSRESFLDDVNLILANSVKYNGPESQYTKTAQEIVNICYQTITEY
Text: as §6

TRIM24(PHD,BRD) = biological target: T7, TRIM24(PHD,BRD) (Homo sapiens, UniProt O15164); test: BROMOscan ligand-binding assay; conditions: KD, TRIM24(PHD,Bromo.)
T7 sequence (O15164 824-1006 limits assumed): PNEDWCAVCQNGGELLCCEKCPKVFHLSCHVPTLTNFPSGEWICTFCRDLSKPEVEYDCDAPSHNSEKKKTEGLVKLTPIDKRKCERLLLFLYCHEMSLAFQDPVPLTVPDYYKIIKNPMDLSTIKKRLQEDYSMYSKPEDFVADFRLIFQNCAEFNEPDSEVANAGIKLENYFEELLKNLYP
Text: as §6

BRD4(1) = BRD4(1) (Homo sapiens, UniProt O60885); test: BROMOscan ligand-binding assay
Text: as §6

BRD3(2) = BRD3(2) (Homo sapiens, UniProt Q15059); test: BROMOscan ligand-binding assay; conditions: KD, BROMOscan Gene Symbol BRD3(2)
Sequence of BRD3(2) (Q15059 306-415 limits assumed): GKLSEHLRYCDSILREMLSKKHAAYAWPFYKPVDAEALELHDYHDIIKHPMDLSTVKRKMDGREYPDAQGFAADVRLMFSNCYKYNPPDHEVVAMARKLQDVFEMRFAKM
Text: as §6

SMARCA2(iso.A) = SMARCA2(iso.A) (Homo sapiens, UniProt P51531); test: BROMOscan ligand-binding assay
Sequence of SMARCA2(iso.A) (P51531 1378-1506 limits assumed): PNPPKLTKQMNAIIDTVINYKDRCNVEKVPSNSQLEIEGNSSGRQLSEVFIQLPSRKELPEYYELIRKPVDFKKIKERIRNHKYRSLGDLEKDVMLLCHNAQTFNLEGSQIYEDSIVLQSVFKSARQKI
Text: as §6

BRPF1 = biological target: T8, BRPF1 (Homo sapiens, UniProt P55201); test: BROMOscan ligand-binding assay; conditions: KD, BRPF1
T8 sequence (P55201 628-732 limits assumed): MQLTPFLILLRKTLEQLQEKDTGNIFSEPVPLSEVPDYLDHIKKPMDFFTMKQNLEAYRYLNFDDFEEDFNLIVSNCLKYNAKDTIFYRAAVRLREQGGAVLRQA
Text: as §6

SMARCA4 = SMARCA4 (Homo sapiens, UniProt P51532); test: BROMOscan ligand-binding assay
Sequence of SMARCA4 (P51532 1453-1564 limits assumed): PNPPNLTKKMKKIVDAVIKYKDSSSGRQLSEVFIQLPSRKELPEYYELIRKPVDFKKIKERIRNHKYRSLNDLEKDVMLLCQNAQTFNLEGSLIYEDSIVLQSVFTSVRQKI
Text: as §6

EED = EED (Homo sapiens, UniProt O75530); test: Temperature shift assay (non-BRD reader domains); assay type: binding; conditions: 10µM compound
Sequence of EED (O75530 whole entry, species assumed, the tested form may be a part): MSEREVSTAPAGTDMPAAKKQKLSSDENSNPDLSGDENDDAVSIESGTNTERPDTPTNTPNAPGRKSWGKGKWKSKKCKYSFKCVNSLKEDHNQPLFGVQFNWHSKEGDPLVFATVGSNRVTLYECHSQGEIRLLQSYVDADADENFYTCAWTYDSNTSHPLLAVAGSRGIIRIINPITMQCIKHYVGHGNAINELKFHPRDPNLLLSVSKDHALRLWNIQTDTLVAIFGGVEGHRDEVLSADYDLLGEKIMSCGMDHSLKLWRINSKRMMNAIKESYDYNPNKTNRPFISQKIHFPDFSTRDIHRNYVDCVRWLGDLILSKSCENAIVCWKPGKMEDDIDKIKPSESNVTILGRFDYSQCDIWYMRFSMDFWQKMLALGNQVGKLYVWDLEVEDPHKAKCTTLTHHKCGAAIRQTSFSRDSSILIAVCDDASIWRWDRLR
Protocol: as §1, §2, §3, §4, §5

UHRF1 = biological target: T9, UHRF1 (Homo sapiens, UniProt Q96T88); test: Temperature shift assay (non-BRD reader domains); assay type: binding; conditions: 10µM compound
T9 sequence (Q96T88 126-285 limits assumed): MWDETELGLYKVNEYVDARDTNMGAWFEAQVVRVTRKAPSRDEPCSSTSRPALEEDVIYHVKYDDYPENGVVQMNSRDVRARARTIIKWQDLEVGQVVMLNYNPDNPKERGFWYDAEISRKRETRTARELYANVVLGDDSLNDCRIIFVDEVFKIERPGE
Protocol: as §1, §2, §3, §4, §5

SND1 = biological target: T10, SND1 (Homo sapiens, UniProt Q7KZF4); test: Temperature shift assay (non-BRD reader domains); assay type: binding; conditions: 10µM compound
T10 sequence (Q7KZF4 729-787 limits assumed): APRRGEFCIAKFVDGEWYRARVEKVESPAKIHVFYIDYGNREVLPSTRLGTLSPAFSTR
Protocol: as §1, §2, §3, §4, §5

[1] = KD (BROMOscan), sheet prints no unit (nM)

In the case of Cc1cc2c(cc1N1C(=O)c3cccc4c(CCCO)ccc(c34)C1=O)n(C)c(=O)n2C [BAY-299], the Temperature shift (RPS6KA1) is reported as 0.1 Kelvin, the Temperature shift (STK10) is reported as -0.2 Kelvin and the Temperature shift (TTK) is reported as -0.1 Kelvin. The Temperature shift (DYRK1A) was -0.5 Kelvin, the Temperature shift (STK3) was 0.1 Kelvin and the Temperature shift (PAK4) was -0.1 Kelvin. For the same molecule, the “Tm (C) 10µM, temperature shift” value (BRPF3) was 1.5 Kelvin, the “Tm (C) 10µM, temperature shift” value (RBBP1) was -1.0 Kelvin and the “Tm (C) 10µM, temperature shift” value (TDRD3) was -1.4 Kelvin. The “Tm (C) 10µM, temperature shift” value (FXR1) was 0.8 Kelvin, the “Tm (C) 10µM, temperature shift” value (53BP1) was 0.3 Kelvin and the “Tm (C) 10µM, temperature shift” value (WDR5) was 0.2 Kelvin.

Molecule CCC(=O)N1CCOc2c(cc(-c3ccc(OC)c(OC)c3)cc2OCC2CCCN(C)C2)C1 (centres unmarked) [I-CBP112] has a Kd (BRD4(fl)) of 2.85 µM, a Kd (TAF1L(2)) of 52 µM and a Kd (TRIM24(PHD,BRD)) of 14 µM. For the same molecule, the Kd (BRD4(1)) was 2.9 µM, the Kd (BRD3(2)) was 20 µM and the Temperature shift (RPS6KA1) was 0.1 Kelvin. The Temperature shift (STK10) was -0.4 Kelvin, the Temperature shift (TTK) was 0.0 Kelvin and the Temperature shift (DYRK1A) was -0.4 Kelvin. It also gave a Temperature shift (STK3) of 0.0 Kelvin, a Temperature shift (PAK4) of -0.2 Kelvin and a Kd (SMARCA2(iso.A); [1]) of over 30000 nM. It also gave a Kd (SMARCA2(iso.A); KD, SMARCA2(iso.A)) of over 100000 nM, a Kd (BRPF1) of 20 µM and a Kd (SMARCA4; [1]) of over 30000 nM. The Kd (SMARCA4; KD, SMARCA4) was over 100000 nM, the “Tm (C) 10µM, temperature shift” value (EED) was -0.5 Kelvin and the “Tm (C) 10µM, temperature shift” value (UHRF1) was 0.0 Kelvin. For the same molecule, the “Tm (C) 10µM, temperature shift” value (SND1) was -0.7 Kelvin, the “Tm (C) 10µM, temperature shift” value (BRPF3) was 0.0 Kelvin and the “Tm (C) 10µM, temperature shift” value (RBBP1) was -0.1 Kelvin. The “Tm (C) 10µM, temperature shift” value (TDRD3) was -0.6 Kelvin, the “Tm (C) 10µM, temperature shift” value (FXR1) was 0.9 Kelvin and the “Tm (C) 10µM, temperature shift” value (53BP1) was 0.3 Kelvin. The “Tm (C) 10µM, temperature shift” value (WDR5) was -0.2 Kelvin.

Cc1nnc2c3ccccc3c(N[C@@H](C)[C@H](c3ccccc3)N(C)C)nn12 [L-Moses] was tested, and the Temperature shift (RPS6KA1) was 0.2 Kelvin, the Temperature shift (STK10) was -0.4 Kelvin and the Temperature shift (TTK) was -0.5 Kelvin. The Temperature shift (DYRK1A) was 0.2 Kelvin, the Temperature shift (STK3) was 0.0 Kelvin and the Temperature shift (PAK4) was -0.3 Kelvin. The “Tm (C) 10µM, temperature shift” value (EED) was -0.3 Kelvin, the “Tm (C) 10µM, temperature shift” value (SND1) was -1.0 Kelvin and the “Tm (C) 10µM, temperature shift” value (BRPF3) was 1.0 Kelvin. The “Tm (C) 10µM, temperature shift” value (RBBP1) was -0.4 Kelvin, the “Tm (C) 10µM, temperature shift” value (TDRD3) was -0.9 Kelvin and the “Tm (C) 10µM, temperature shift” value (FXR1) was 0.3 Kelvin. The “Tm (C) 10µM, temperature shift” value (WDR5) was 0.5 Kelvin.
